Results on one cell line are retold here after the supplement of paper PMC10307832.

Experiment in all cases: relative viability (nuclei count vs DMSO), 5 days (fraction); higher = more cells survive
Compound in the test “CUDC-101 + Palbociclib”: C#Cc1cccc(Nc2ncnc3cc(OC)c(OCCCCCCC(=O)NO)cc23)c1 [CUDC-101] + CC(=O)c1c(C)c2cnc(Nc3ccc(N4CCNCC4)cn3)nc2n(C2CCCC2)c1=O [Palbociclib] (partner 0.5 µM)
Summed up: (§1)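 For relative viability, nuclei counts in treated wells were divided by those in vehicle wells. Lung cancer cell lines had been pin-tool dosed in 1536-well plates the day after seeding and cultured for 5 days, then fixed and stained in one step (final 0.05% Triton X-100, 1% formaldehyde, 1 ug/ml Hoechst) and imaged at 4×. Doses were one drug alone or a fixed anchor-drug dose plus five library-drug doses (not always all listed) in √10 steps, and values are duplicate-plate medians.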

Compound in the test “Vandetanib + Olaparib”: COc1cc2/c(=N/c3ccc(Br)cc3F)nc[nH]c2cc1OCC1CCN(C)CC1 [Vandetanib] + O=C(c1cc(Cc2n[nH]c(=O)c3ccccc23)ccc1F)N1CCN(C(=O)C2CC2)CC1 [Olaparib] (partner 8 µM)
Summed up: as §1

Compound in the test “NVP-TAE684 + Pemetrexed”: COc1cc(N2CCC(N3CCN(C)CC3)CC2)ccc1Nc1ncc(Cl)c(Nc2ccccc2S(=O)(=O)C(C)C)n1 [NVP-TAE684] + Nc1nc2[nH]cc(CCc3ccc(C(=O)N[C@@H](CCC(=O)O)C(=O)O)cc3)c2c(=O)[nH]1 [Pemetrexed] (partner 0.2 µM)
Summed up: as §1

Compound in the test “CUDC-101 + Tozasertib”: C#Cc1cccc(Nc2ncnc3cc(OC)c(OCCCCCCC(=O)NO)cc23)c1 [CUDC-101] + Cc1cc(Nc2cc(N3CCN(C)CC3)nc(Sc3ccc(NC(=O)C4CC4)cc3)n2)n[nH]1 [Tozasertib] (partner 0.1 µM)
The method, boiled down:
as §1

Take UMC-11: the relative viability with CUDC-101 + Palbociclib (first compound 0.01 µM) is 0.346; with CUDC-101 + Palbociclib (first compound 0.03162 µM), 0.375; in the test with CUDC-101 + Palbociclib (first compound 0.1 µM) it was 0.323; in the test with CUDC-101 + Palbociclib (first compound 0.3162 µM), 0.277; with CUDC-101 + Palbociclib (first compound 1 µM), 0.228; in the test with Vandetanib + Olaparib (first compound 0.02 µM), 0.707. Moreover, the relative viability with Vandetanib + Olaparib (first compound 0.06325 µM) amounted to 0.35; with Vandetanib + Olaparib (first compound 0.2 µM) it was 0.473; with Vandetanib + Olaparib (first compound 0.6325 µM), 0.315; with Vandetanib + Olaparib (first compound 2 µM) it was 0.475; with NVP-TAE684 + Pemetrexed (first compound 0.2 µM), 0.736; with NVP-TAE684 + Pemetrexed (first compound 0.6325 µM), 0.735. Also, the relative viability with NVP-TAE684 + Pemetrexed (first compound 2 µM) stood at 0.347; with CUDC-101 + Tozasertib (first compound 0.01 µM), 0.193; with CUDC-101 + Tozasertib (first compound 0.03162 µM) it was 0.176; in the test with CUDC-101 + Tozasertib (first compound 0.1 µM), 0.193; in the test with CUDC-101 + Tozasertib (first compound 0.3162 µM) it was 0.155; in the test with CUDC-101 + Tozasertib (first compound 1 µM) it was 0.133.
